Experimental data from ChEMBL document CHEMBL1153401, “Role of the hydrogen bonding heteroatom-Lys53 interaction between the p38alpha mitogen-activated protein (MAP) kinase and pyridinyl-substituted 5-membered heterocyclic ring inhibitors” (J Med Chem, 2009).

Target: Mitogen-activated protein kinase 14 (Homo sapiens, UniProt Q16539)
Experiment: Inhibition of p38alpha MAP kinase

Mitogen-activated protein kinase 14, sequence (Q16539 whole entry): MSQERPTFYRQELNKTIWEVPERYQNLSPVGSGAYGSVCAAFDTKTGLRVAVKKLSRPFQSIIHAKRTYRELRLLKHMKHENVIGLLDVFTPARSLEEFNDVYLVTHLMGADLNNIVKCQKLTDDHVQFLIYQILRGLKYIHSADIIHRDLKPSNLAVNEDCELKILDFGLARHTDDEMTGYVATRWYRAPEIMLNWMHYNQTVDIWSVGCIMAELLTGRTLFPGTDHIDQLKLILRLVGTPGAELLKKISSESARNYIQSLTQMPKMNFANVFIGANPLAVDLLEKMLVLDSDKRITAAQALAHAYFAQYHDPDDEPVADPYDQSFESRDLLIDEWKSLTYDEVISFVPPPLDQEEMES

SMILES | IC50 [nM]
Fc1ccc(C2=C(c3ccncc3)CCC2)cc1 | 4050
Fc1ccc(-c2[nH]ccc2-c2ccncc2)cc1 | 420
Fc1ccc(-c2occc2-c2ccncc2)cc1 | 740
Fc1ccc(-c2nc[nH]c2-c2ccncc2)cc1 | 79
